# Measurements: publication PMC9865193, “Improvement of the Chemical Reactivity of Michael Acceptor of Ethacrynic Acid Correlates with Antiproliferative Activities” (Molecules, 2023)
# How the values were obtained:
# HL60 cells = experiment: MTS cell growth inhibition assay, HL60; assay type: cell-based, human; details: for IC50: Homo sapiens, HL-60, read-out: IC50 antiproliferative activity against HL60; for Selectivity index (SI) MRC5/HL60: ratio of IC50 MRC5/IC50 HL60
# Source text: Based on a multiple target assay, all the prepared compounds (6–10) were first evaluated against HL60 leukemia cells to assess their in vitro antiproliferative activities. As mentioned in the Table 1, the obtained results were expressed as half-maximal inhibitory concentration (IC50) values with the average of at least three independent experiments and are compared to EA.
# (§1) All cancer cell lines (HCT116, A549, MCF7, PC3, U87-MG, SKOV3, and MRC5) were obtained from the European Collection of Cell Culture (ECACC, Salisbury, UK) or from the American Type Culture Collection (Rockville, MD, USA) and were cultured according to the supplier’s instructions. Human HCT-116 colorectal carcinoma, MCF7 breast adenocarcinoma, PC3 prostate adenocarcinoma, A549 lung carcinoma, and SK-OV-3 ovary carcinoma were grown in Gibco McCoy’s 5A supplemented with 10% fetal calf serum (FCS) and 1% glutamine. HL60 myelogenous leukemia cells were grown in RPMI 1640 supplemented with 10% fetal calf serum (FCS) and 1% glutamine. U87-MG glioblastoma and human MRC-5 cells were grown in Gibco medium DMEM supplemented with 10% fetal calf serum (FCS) and 1% glutamine. Cells were maintained at 37 °C in a humidified atmosphere containing 5% CO2. Cell growth inhibition was determined by an MTS assay according to the manufacturer’s instructions (Promega, Madison, WI, USA). Briefly, the cells were seeded in 96-well plates (2.5 × 10^3 cells/well) containing 100 μL of growth medium. After 24 h of culture, the cells were treated with the tested compounds at 10 different final concentrations. After incubation for 72 h, 20 µL of Cell Titer 96®AQueous. One Solution Reagent was added for 2 h before recording absorbance at 490nm with a spectrophotometric plate reader. The concentration–response curves were generated with Graph Prism software and the 50% inhibition concentration values (IC50) were calculated from polynomial curves (four or five-parameter logistic equations).
# A549 cells = experiment: MTS cell growth inhibition assay, A549; assay type: cell-based, human; details: for IC50: Homo sapiens, A549, 72 h of exposure, read-out: IC50 antiproliferative activity A549; for Selectivity index (SI) MRC5/A549: ratio of IC50 MRC5/IC50 A549
# Protocol: (§2) Moreover, in order to evaluate the safety index, their effect on the proliferation of human lung fibroblasts (MCR5) as a normal cell line was also studied.
# (§3) All cancer cell lines (HCT116, A549, MCF7, PC3, U87-MG, SKOV3, and MRC5) were obtained from the European Collection of Cell Culture (ECACC, Salisbury, UK) or from the American Type Culture Collection (Rockville, MD, USA) and were cultured according to the supplier’s instructions. […] U87-MG glioblastoma and human MRC-5 cells were grown in Gibco medium DMEM supplemented with 10% fetal calf serum (FCS) and 1% glutamine. Cells were maintained at 37 °C in a humidified atmosphere containing 5% CO2. Cell growth inhibition was determined by an MTS assay according to the manufacturer’s instructions (Promega, Madison, WI, USA). Briefly, the cells were seeded in 96-well plates (2.5 × 10^3 cells/well) containing 100 μL of growth medium. After 24 h of culture, the cells were treated with the tested compounds at 10 different final concentrations. After incubation for 72 h, 20 µL of Cell Titer 96®AQueous. One Solution Reagent was added for 2 h before recording absorbance at 490nm with a spectrophotometric plate reader.
# U87-MG cells = experiment: MTS cell growth inhibition assay, U87-MG; assay type: cell-based, human; details: for IC50: Homo sapiens, U-87 MG, U87-MG, 72 h of exposure, read-out: IC50 antiproliferative activity U87-MG; for Selectivity index (SI) MRC5/U87-MG: ratio of IC50 MRC5/IC50 U87-MG
# Protocol: as §2, §3
# MRC5 cells = experiment: MTS cell growth inhibition assay, normal cell line MRC5; assay type: cell-based; details: MRC5 normal human lung fibroblasts, 72 h of exposure; read-out: IC50 antiproliferative activity MRC5
# Protocol: as §2, §1
# MCF7 cells = experiment: MTS cell growth inhibition assay, MCF7; assay type: cell-based, human; details: for IC50: Homo sapiens, MCF7, 72 h of exposure, read-out: IC50 antiproliferative activity MCF7; for Selectivity index (SI) MRC5/MCF7: ratio of IC50 MRC5/IC50 MCF7
# Protocol: as §2, §3
# PC3 cells = experiment: MTS cell growth inhibition assay, PC3; assay type: cell-based, human; details: for IC50: Homo sapiens, PC-3, PC3, 72 h of exposure, read-out: IC50 antiproliferative activity PC3; for Selectivity index (SI) MRC5/PC3: ratio of IC50 MRC5/IC50 PC3
# Protocol: as §2, §1
# HCT116 cells = experiment: MTS cell growth inhibition assay, HCT116; assay type: cell-based, human; details: for IC50: Homo sapiens, HCT-116, HCT116, 72 h of exposure, read-out: IC50 antiproliferative activity HCT116; for Selectivity index (SI) MRC5/HCT116: ratio of IC50 MRC5/IC50 HCT116
# Protocol: as §2, §3
# SKOV3 cells = experiment: MTS cell growth inhibition assay, SKOV3; assay type: cell-based, human; details: for IC50: Homo sapiens, SK-OV-3, SKOV3, 72 h of exposure, read-out: IC50 antiproliferative activity SKOV3; for Selectivity index (SI) MRC5/SKOV3: ratio of IC50 MRC5/IC50 SKOV3
# Protocol: as §2, §1
structure (smiles),measurement,setting,value
"C=C(CC)C(=O)c1ccc(OCC(=O)O)cc1O [Compound 6, 2-(3-Hydroxy-4-(2-methylenebutanoyl)phenoxy)acetic acid]",IC50,"HL60 cells; HL60 leukemia cells, 72 h, MTS",> 10000 nM
"C=C(CC)C(=O)c1ccc(OCC(=O)NCCCC)cc1O [Compound 7, N-Butyl-2-(3-hydroxy-4-(2-methylenebutanoyl)phenoxy)acetamide]",IC50,A549 cells,285 ± 67.8 nM
same,Selectivity index (SI) MRC5/A549,A549 cells,2.98
same,IC50,U87-MG cells,1610 ± 355 nM
same,Selectivity index (SI) MRC5/U87-MG,U87-MG cells,0.52
same,IC50,MRC5 cells,850 ± 110 nM
same,IC50,MCF7 cells,528 ± 16.9 nM
same,Selectivity index (SI) MRC5/MCF7,MCF7 cells,1.60
same,IC50,PC3 cells,485 ± 20.9 nM
same,Selectivity index (SI) MRC5/PC3,PC3 cells,1.75
same,IC50,HCT116 cells,920 ± 20 nM
same,Selectivity index (SI) MRC5/HCT116,HCT116 cells,0.93
same,IC50,SKOV3 cells,1510 ± 363 nM
same,Selectivity index (SI) MRC5/SKOV3,SKOV3 cells,0.56
same,IC50,"HL60 cells; HL60 leukemia cells, 72 h, MTS",1700 ± 520 nM
same,Selectivity index (SI) MRC5/HL60,HL60 cells,0.50
"C#CCOc1ccc(C(=O)C(=C)CC)c(O)c1 [Compound 8, 1-(2-Hydroxy-4-(prop-2-yn-1-yloxy)phenyl)-2-methylenebutan-1-one]",IC50,A549 cells,41.2 ± 1.88 nM
same,Selectivity index (SI) MRC5/A549,A549 cells,8.49
same,IC50,U87-MG cells,369 ± 50.1 nM
same,Selectivity index (SI) MRC5/U87-MG,U87-MG cells,0.94
same,IC50,MRC5 cells,350 ± 40 nM
same,IC50,MCF7 cells,61.5 ± 0.9 nM
same,Selectivity index (SI) MRC5/MCF7,MCF7 cells,5.69
same,IC50,PC3 cells,68.7 ± 3.7 nM
same,Selectivity index (SI) MRC5/PC3,PC3 cells,5.09
same,IC50,HCT116 cells,1260 ± 80 nM
same,Selectivity index (SI) MRC5/HCT116,HCT116 cells,0.27
same,IC50,SKOV3 cells,138 ± 53.8 nM
same,Selectivity index (SI) MRC5/SKOV3,SKOV3 cells,2.53
same,IC50,"HL60 cells; HL60 leukemia cells, 72 h, MTS",15 ± 6 nM
same,Selectivity index (SI) MRC5/HL60,HL60 cells,23.33
"C=C(CC)C(=O)c1ccc(OCC(=O)NCCCC)c(Cl)c1Cl [Compound 9, N-Butyl-2-(2,3-dichloro-4-(2-methylenebutanoyl)phenoxy)acetamide]",IC50 antiproliferative activity against HL60,"HL60 cells; HL60 leukemia cells, 72 h, MTS",inactive
C#CCOc1ccc(C(=O)C(=C)CC)c(Cl)c1Cl [Compound 10],IC50,"HL60 cells; HL60 leukemia cells, 72 h, MTS",580 ± 40 nM
"COc1cccc2c1C(=O)c1c(O)c3c(c(O)c1C2=O)C[C@@](O)(C(=O)CO)C[C@@H]3O[C@H]1C[C@H](N)[C@H](O)[C@H](C)O1 [Doxorubicin, doxorubicin, reference compound]",IC50,A549 cells,56.6 ± 0.84 nM
same,IC50,U87-MG cells,99.6 ± 2.34 nM
same,IC50,MRC5 cells,39.9 ± 1.22 nM
same,IC50,MCF7 cells,120 ± 9 nM
same,IC50,PC3 cells,2.09 ± 0.03 nM
same,IC50,HCT116 cells,90 ± 3 nM
